From US9284321B2, “Piperazino[1,2-a]indol-1-ones and [1,4]diazepino[1,2-a]indol-1-one” (Hoffmann-La Roche Inc., priority 2012, dated 2016)

How the values were obtained:
[1] = system: human embryonic stem cell derived neural stem cells (NSCs); experiment: Neural Stem Cell Proliferation Assay (neurogenesis assay, ATP levels by CellTiterGlo); type: cell-based; details: 96 h, compound concentration at which 150% activity of control (100%) is reached, NSC proliferation by ATP level after 4 days incubation, dose response 8 μM to 8 nM
In short: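 Human ESC-derived NSCs (dual SMAD inhibition) seeded 4 h before compounds, 11-point 2-fold series 8 μM–8 nM; 4 days at 37 °C, 5% CO2. ATP by CellTiterGlo luminescence as cell-number proxy, response as % of media control (0.25% DMSO); EC150 = concentration giving 150% of control.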

| SMILES | melting point | EC (150% of control) [1] |
| --- | --- | --- |
| N#Cc1cc(-c2ccc(CO)cc2)c2c(c1)cc1n2CCNC1=O [Example 228, 6-[4-(Hydroxymethyl)-phenyl]-1-oxo-3,4-dihydro-2H-pyrazino[1,2-a]indole-8-carbonitrile] | 257.5 °C | 0.041 µM |
| C[C@@H]1CNC(=O)c2cc3cc(F)cc(-c4cc(F)cc(F)c4)c3n21 [Example 9, (R)-6-(3,5-Difluoro-phenyl)-8-fluoro-4-methyl-3,4-dihydro-2H-pyrazino[1,2-a]indol-1-one] | 229.5 °C | 0.37 µM |
| N#Cc1cc(-c2cccc(Cl)c2)c2c(c1)cc1n2CCNC1=O [Example 193, 6-(3-Chlorophenyl)-1-oxo-3,4-dihydro-2H-pyrazino[1,2-a]indole-8-carbonitrile] | 241.5 °C | 0.32 µM |
| O=C1NCCn2c1cc1cc(Cl)cc(-c3ccc(Cl)cc3)c12 [Example 49, 8-Chloro-6-(4-chloro-phenyl)-3,4-dihydro-2H-pyrazino[1,2-a]indol-1-one] | 320 °C | 0.045 µM |
| COc1ccc(-c2cc(F)cc3cc4n(c23)CCCNC4=O)cc1 [Example 16, 9-Fluoro-7-(4-methoxy-phenyl)-2,3,4,5-tetrahydro-[1,4]diazepino[1,2-a]indol-1-one] | 225.5 °C | 0.009 µM |
| N#Cc1cc(-c2ccc(OC(F)(F)F)cc2)c2c(c1)cc1n2CCCNC1=O [Example 255, 1-Oxo-7-[4-(trifluoromethoxy)phenyl]-2,3,4,5-tetrahydro-[1,4]diazepino[1,2-a]indole-9-carbonitrile] | 230.5 °C | 0.3 µM |
| O=C1NCCCn2c1cc1cc(F)cc(-c3ccncc3)c12 [Example 20, 9-Fluoro-7-pyridin-4-yl-2,3,4,5-tetrahydro-[1,4]diazepino[1,2-a]indol-1-one] | 309 °C | 0.037 µM |
| N#Cc1cc(-c2cccc(Cl)c2)c2c(c1)cc1n2CCCNC1=O [Example 285, 7-(3-Chlorophenyl)-1-oxo-2,3,4,5-tetrahydro-[1,4]diazepino[1,2-a]indole-9-carbonitrile] | 209 °C | 3.12 µM |
| O=C1NCCn2c1cc1cc(OC(F)(F)F)cc(-c3ccc(C(F)(F)F)cc3)c12 [Example 216, 8-(Trifluoromethoxy)-6-[4-(trifluoromethyl)-phenyl]-3,4-dihydro-2H-pyrazino[1,2-a]indol-1-one] | 243 °C | 0.022 µM |
| N#Cc1cc(-c2ccc(Cl)cc2Cl)c2c(c1)cc1n2CCNC1=O [Example 175, 6-(2,4-Dichloro-phenyl)-1-oxo-1,2,3,4-tetrahydro-pyrazino[1,2-a]indole-8-carbonitrile] | 284.5 °C | 0.034 µM |
| N#Cc1cc(-c2ccc(C(F)(F)F)cc2)c2c(c1)cc1n2CCCNC1=O [Example 218, 1-Oxo-7-[4-(trifluoromethyl)-phenyl]-2,3,4,5-tetrahydro-[1,4]diazepino[1,2-a]indole-9-carbonitrile] | 241.5 °C | 0.45 µM |
| COc1ccc(-c2c(F)c(F)cc3cc4n(c23)CCCNC4=O)cc1 [Example 41, 8,9-Difluoro-7-(4-methoxy-phenyl)-2,3,4,5-tetrahydro-[1,4]diazepino[1,2-a]indol-1-one] | 182.5 °C | 0.006 µM |

Further lines, with some results ahead:

| melting point | SMILES | EC (150% of control) [1] |
| --- | --- | --- |
| 298 °C | Cc1c2n(c3c(-c4ccc(Cl)cc4)cc(C#N)cc13)CCNC2=O [Example 163, 6-(4-Chloro-phenyl)-10-methyl-1-oxo-1,2,3,4-tetrahydro-pyrazino[1,2-a]indole-8-carbonitrile] | 0.013 µM |
| 230.5 °C | O=C1NCCCn2c1cc1cc(F)cc(-c3ccc(F)c(F)c3)c12 [Example 28, 7-(3,4-Difluoro-phenyl)-9-fluoro-2,3,4,5-tetrahydro-[1,4]diazepino[1,2-a]indol-1-one] | 0.1 µM |
| 240 °C | Cc1c2n(c3c(-c4ccc(Cl)c(Cl)c4)cc(Cl)cc13)CCNC2=O [Example 97, 8-Chloro-6-(3,4-dichloro-phenyl)-10-methyl-3,4-dihydro-2H-pyrazino[1,2-a]indol-1-one] | 0.056 µM |
| 251.5 °C | Cc1ccc(-c2cc(Cl)cc3c(C)c4n(c23)CCNC4=O)cc1 [Example 89, 8-Chloro-10-methyl-6-p-tolyl-3,4-dihydro-2H-pyrazino[1,2-a]indol-1-one] | 0.01 µM |
| 295 °C | Cc1c2n(c3c(-c4ccncc4)cc(Cl)cc13)CCNC2=O [Example 91, 8-Chloro-10-methyl-6-pyridin-4-yl-3,4-dihydro-2H-pyrazino[1,2-a]indol-1-one] | 0.017 µM |
| 216 °C | Cc1c2n(c3c(-c4ccc(Cl)c(F)c4)cc(F)cc13)CCNC2=O [Example 85, 6-(4-Chloro-3-fluoro-phenyl)-8-fluoro-10-methyl-3,4-dihydro-2H-pyrazino[1,2-a]indol-1-one] | 0.04 µM |
| 260 °C | Cc1c2n(c3c(-c4cccnc4)cc(C#N)cc13)CCCNC2=O [Example 298, 11-Methyl-1-oxo-7-pyridin-3-yl-2,3,4,5-tetrahydro-[1,4]diazepino[1,2-a]indole-9-carbonitrile] | 1 µM |
| 346 °C | O=C1NCCn2c1cc1cc(F)cc(-c3ccc(C(F)(F)F)cc3)c12 [Example 25, 8-Fluoro-6-(4-trifluoromethyl-phenyl)-3,4-dihydro-2H-pyrazino[1,2-a]indol-1-one] | 0.023 µM |
| 254 °C | Cc1c2n(c3c(-c4ccc(Cl)c(Cl)c4)cc(C#N)cc13)CCCNC2=O [Example 296, 7-(3,4-Dichlorophenyl)-11-methyl-1-oxo-2,3,4,5-tetrahydro-[1,4]diazepino[1,2-a]indole-9-carbonitrile] | 0.2 µM |
| 310 °C | Cc1c2n(c3c(-c4cnc(N)nc4)cc(F)cc13)CCNC2=O [Example 157, 6-(2-Amino-pyrimidin-5-yl)-8-fluoro-10-methyl-3,4-dihydro-2H-pyrazino[1,2-a]indol-1-one] | 0.19 µM |
| 327 °C | O=C1NCCn2c1cc1c(F)c(F)cc(-c3ccc(Cl)cc3)c12 [Example 34, 6-(4-Chloro-phenyl)-8,9-difluoro-3,4-dihydro-2H-pyrazino[1,2-a]indol-1-one] | 1.4 µM |
| 213 °C | Cc1c2n(c3c(-c4ccc(Cl)cc4Cl)cc(Cl)cc13)CCNC2=O [Example 102, 8-Chloro-6-(2,4-dichloro-phenyl)-10-methyl-3,4-dihydro-2H-pyrazino[1,2-a]indol-1-one] | 0.009 µM |
| 259 °C | Cc1c2n(c3c(-c4ccc(Cl)cc4F)cc(C#N)cc13)CCCNC2=O [Example 207, 7-(4-Chloro-2-fluorophenyl)-11-methyl-1-oxo-2,3,4,5-tetrahydro-[1,4]diazepino[1,2-a]indole-9-carbonitrile] | 0.019 µM |
| 254 °C | Cc1c2n(c3c(-c4ccnc(Cl)c4)cc(F)cc13)CCNC2=O [Example 140, 6-(2-Chloro-pyridin-4-yl)-8-fluoro-10-methyl-3,4-dihydro-2H-pyrazino[1,2-a]indol-1-one] | 0.12 µM |
| 222 °C | Cc1c2n(c3c(-c4cccc(F)c4)cc(F)cc13)CCNC2=O [Example 87, 8-Fluoro-6-(3-fluoro-phenyl)-10-methyl-3,4-dihydro-2H-pyrazino[1,2-a]indol-1-one] | 0.1 µM |
